Measurements: PMC6048268, “Resveratrol Inhibits Key Steps of Steroid Metabolism in a Human Estrogen-Receptor Positive Breast Cancer Model: Impact on Cellular Proliferation” (Frontiers in Pharmacology, 2018)

Assays:
[1] = molecular target: estrogen sulfation, S9 fractions from human liver; design: method as in Furimsky et al. (2008); conditions: ref Furimsky et al. (2008), read-out: Ki, inhibition of estrogen sulfation; cited from earlier work
SULT2A1 mRNA = test: Real-time PCR, SULT2A1 mRNA expression in MCF-7 cells; type: cell-based, human; conditions: 10 μM RES, 24 and 48 h, data not shown
Description: MCF-7 breast cancer cells were seeded in 6-well plates at a density of 1.0 × 10^6 cells per well and allowed to attach overnight. […] Expression profiling of genes of interest was performed as detailed previously ([Mechtcheriakova et al., 2007]; [Meshcheryakova et al., 2016]). Upon treatment, total RNA was isolated using peqGOLD TriFAST^TM reagent (VWR, Vienna, Austria) according to the manufacturer’s protocol. 1 μg RNA was used for cDNA generation using the High Capacity cDNA Reverse Transcription Kit (Thermo Fisher Scientific, Inc.) according to the instructions of the manufacturer. Real-time PCR analysis was performed in the 96-well plate format on a QuantStudio 12K Flex Real-Time PCR System (Thermo Fisher Scientific, Inc.). SULT1A1 and SULT2A1 were detected using the corresponding TaqMan Assays (Thermo Fisher Scientific, Inc.). […] HKGs primers were self-designed using the Primer Express 3.0 software (Thermo Fisher Scientific, Inc.) and validated using the Human Total RNA Master Panel (TaKaRa Bio, Inc., Saint-Germain-en-Laye, France), as described before ([Mechtcheriakova et al., 2007], [2011]); Primers: UBC forward: […]; UBC reverse: […]; GAPDH forward: […]; GAPDH reverse: […]; ACTB forward: […]; ACTB reverse: […]. For relative quantification, data were analyzed by applying the ΔΔCT method. […]

[2] = molecular target: estrogen sulfation, S9 fractions from human jejunum; design: method as in Furimsky et al. (2008); conditions: ref Furimsky et al. (2008), read-out: Ki, inhibition of estrogen sulfation; cited from earlier work
MDA-MB-231 cells = test: Cell proliferation, Casy cell counting, MDA-MB-231; type: cell-based, human
Description: MDA-MB-231 and MCF-7 breast cancer cells were purchased from the American Type Culture Collection (ATCC; Manassas, VA, United States) and routinely cultivated at 37°C (95% humidity and 5% CO2) in phenolred-free Dulbecco’s modified Eagle medium F-12 (DMEM/F-12), fortified with 1% PenStrep®-solution and 10% fetal bovine serum (Invitrogen; Thermo Fisher Scientific, Inc., Waltham, MA, United States). All experiments were performed during the exponential growth phase of both cell lines. For the experiments, cells were seeded in 6-well-plates at a density of 1.0 × 10^6 cells per well and allowed to attach for 24 h.
Prior to cell counting with a Casy® TT Cell Counter (OLS OMNI Life Science, Bremen, Germany), the supernatant medium was removed and cells were detached using 400 μl TrypLe® solution (Invitrogen). All experiments were performed in triplicate, and the data were reported as the means ± standard deviation of all values.

E2 levels = system: E2 levels; design: method as in El-Sayed and Bayan, 2015; conditions: mice, 4 mg/kg i.p. for 7 days; ref El-Sayed and Bayan, 2015; cited from earlier work

Oc1ccc(/C=C/c2cc(O)cc(O)c2)cc1 [RES, 3,5,4′-trihydroxy-trans-stilbene]
Ki [1]: 1100 nM
effect on SULT2A1 expression (SULT2A1 mRNA): marginally down-regulated
Ki [2]: 600 nM
number of viable cells (MDA-MB-231 cells; 2.5 μM RES, 48 h, seeded 1.0 × 10^6): 2.03 ± 0.16 × 10^6 cells
reduction of number of viable cells (MDA-MB-231 cells; 100 μM RES, 48 h): 68.6 ± 4.7%
IC50 (MDA-MB-231 cells; Homo sapiens, MDA-MB-231, 48 h, steroid-deprived, read-out: IC50 (inhibition of cell growth)): 15100 ± 4900 nM
effect of simultaneous incubation with RES and E1 on cell proliferation (MDA-MB-231 cells; RES 0–100 μM with E1, 48 h): no observable effect
increase in E2 levels (E2 levels): approximately twofold increase
